From ChEMBL document CHEMBL6153128, “Insights into the Activation Mechanism of HCA1, HCA2, and HCA3” (J Med Chem, 2025) come the findings set out here.

Calls of active or inactive are those of the source. The rule behind the calls is not given here.

For test [1], the target named is T1, Hydroxycarboxylic acid receptor 1 (Homo sapiens, UniProt Q9BXC0). Kind of test: Agonist activity at HCA1 (unknown origin). Format: functional, cell-based, HEK293.
Test [2] deals with HEK293. As to the kind of experiment: Agonist activity at HCA2 (1 to 129 residues)/HCA3 (130-)(unknown origin) expressed in HEK293 cells incubated for 90 mins by IP1 accumulation assay. Format: cell-based. Particulars: Homo sapiens.
Test [3] relates to HEK293. As to the kind of experiment: Agonist activity at HCA3 (1 to 129 residues)/HCA2 (130-)(unknown origin) expressed in HEK293 cells incubated for 90 mins by IP1 accumulation assay. The format is cell-based. Particulars: Homo sapiens.
In test [4] the test system is HEK293. As to the kind of experiment: Agonist activity at HCA3 (1 to 129 residues)/HCA2 (130-) Y86N/S91W mutant (unknown origin) expressed in HEK293 cells incubated for 90 mins by IP1 accumulation assay. Format: cell-based. Particulars: Homo sapiens, filed as agonist.
Test [5] relates to HEK293. Kind of test: Agonist activity at HCA3 (1 to 129 residues)/HCA2 (130-) S178I mutant (unknown origin) expressed in HEK293 cells incubated for 90 mins by IP1 accumulation assay. Format: cell-based. Particulars: Homo sapiens, filed as agonist.
Test [6] deals with HEK293. As to the kind of experiment: Agonist activity at HCA2 (1 to 129 residues)/HCA3 (130-) N86Y/W91S mutant (unknown origin) expressed in HEK293 cells incubated for 90 mins by IP1 accumulation assay. The format is cell-based. Particulars: Homo sapiens.
The target in test [7] is T1, Hydroxycarboxylic acid receptor 1. As to the kind of experiment: Agonist activity at CRE-luc-fused HCA1 (unknown origin) expressed in HEK293 cells co-expressing XtremeGENE HP DNA assessed as inhibition of cAMP production preincubated for 30 mins followed by forskolin addition measured after 6 hrs by Bright-Glo Luciferase Assay. The format is functional, cell-based. Particulars: filed as agonist, time 6.5 hrs. In general terms: cAMP levels reflect the balance of adenylyl cyclase and phosphodiesterase activity.

Test [8] deals with Hydroxycarboxylic acid receptor 1 (Homo sapiens), Q9BXC0 [C6A]. As to the kind of experiment: Agonist activity at CRE-luc-fused HCA1 C6A mutant (unknown origin) expressed in HEK293 cells co-expressing XtremeGENE HP DNA assessed as inhibition of cAMP production preincubated for 30 mins followed by forskolin addition measured after 6 hrs by Bright-Glo Luciferase Assay. Particulars: time 6.5 hrs. The format is cell-based.

Test [9] deals with Hydroxycarboxylic acid receptor 1 (Homo sapiens), Q9BXC0 [C7A]. As to the kind of experiment: Agonist activity at CRE-luc-fused HCA1 C7A mutant (unknown origin) expressed in HEK293 cells co-expressing XtremeGENE HP DNA assessed as inhibition of cAMP production preincubated for 30 mins followed by forskolin addition measured after 6 hrs by Bright-Glo Luciferase Assay. The format is cell-based. Particulars: time 6.5 hrs.

The subject of test [10] is Hydroxycarboxylic acid receptor 1 (Homo sapiens), Q9BXC0 [C88A]. Kind of test: Agonist activity at CRE-luc-fused HCA1 C88A mutant (unknown origin) expressed in HEK293 cells co-expressing XtremeGENE HP DNA assessed as inhibition of cAMP production preincubated for 30 mins followed by forskolin addition measured after 6 hrs by Bright-Glo Luciferase Assay. Format: cell-based. Particulars: time 6.5 hrs.

Test [11] has as its system Hydroxycarboxylic acid receptor 1 (Homo sapiens), Q9BXC0 [Y74A]. As to the kind of experiment: Agonist activity at CRE-luc-fused HCA1 Y74A mutant (unknown origin) expressed in HEK293 cells co-expressing XtremeGENE HP DNA assessed as inhibition of cAMP production preincubated for 30 mins followed by forskolin addition measured after 6 hrs by Bright-Glo Luciferase Assay. Format: cell-based. Particulars: time 6.5 hrs.

Test [12] concerns Hydroxycarboxylic acid receptor 1 (Homo sapiens), Q9BXC0 [E166A]. Kind of test: Agonist activity at CRE-luc-fused HCA1 E166A mutant (unknown origin) expressed in HEK293 cells co-expressing XtremeGENE HP DNA assessed as inhibition of cAMP production preincubated for 30 mins followed by forskolin addition measured after 6 hrs by Bright-Glo Luciferase Assay. Format: cell-based. Particulars: time 6.5 hrs.

For test [13], the system named is Hydroxycarboxylic acid receptor 1 (Homo sapiens), Q9BXC0 [E166I]. Kind of test: Agonist activity at CRE-luc-fused HCA1 E166I mutant (unknown origin) expressed in HEK293 cells co-expressing XtremeGENE HP DNA assessed as inhibition of cAMP production preincubated for 30 mins followed by forskolin addition measured after 6 hrs by Bright-Glo Luciferase Assay. The format is cell-based. Particulars: time 6.5 hrs.

Test [14] has as its system Hydroxycarboxylic acid receptor 1 (Homo sapiens), Q9BXC0 [R240A]. Kind of test: Agonist activity at CRE-luc-fused HCA1 R240A mutant (unknown origin) expressed in HEK293 cells co-expressing XtremeGENE HP DNA assessed as inhibition of cAMP production preincubated for 30 mins followed by forskolin addition measured after 6 hrs by Bright-Glo Luciferase Assay. Particulars: time 6.5 hrs. The format is cell-based.

Test [15] deals with Hydroxycarboxylic acid receptor 1 (Homo sapiens), Q9BXC0 [R71A]. As to the kind of experiment: Agonist activity at CRE-luc-fused HCA1 R71A mutant (unknown origin) expressed in HEK293 cells co-expressing XtremeGENE HP DNA assessed as inhibition of cAMP production preincubated for 30 mins followed by forskolin addition measured after 6 hrs by Bright-Glo Luciferase Assay. Particulars: time 6.5 hrs. The format is cell-based.

In test [16] the test system is Hydroxycarboxylic acid receptor 1 (Homo sapiens), Q9BXC0 [Y75A]. As to the kind of experiment: Agonist activity at CRE-luc-fused HCA1 Y75A mutant (unknown origin) expressed in HEK293 cells co-expressing XtremeGENE HP DNA assessed as inhibition of cAMP production preincubated for 30 mins followed by forskolin addition measured after 6 hrs by Bright-Glo Luciferase Assay. Format: cell-based. Particulars: time 6.5 hrs.

Test [17] relates to Hydroxycarboxylic acid receptor 1 (Homo sapiens), Q9BXC0 [R99A]. Kind of test: Agonist activity at CRE-luc-fused HCA1 R99A mutant (unknown origin) expressed in HEK293 cells co-expressing XtremeGENE HP DNA assessed as inhibition of cAMP production preincubated for 30 mins followed by forskolin addition measured after 6 hrs by Bright-Glo Luciferase Assay. Format: cell-based. Particulars: time 6.5 hrs.

The test system of test [18] is Hydroxycarboxylic acid receptor 1 (Homo sapiens), Q9BXC0 [H261A]. As to the kind of experiment: Agonist activity at CRE-luc-fused HCA1 H261A mutant (unknown origin) expressed in HEK293 cells co-expressing XtremeGENE HP DNA assessed as inhibition of cAMP production preincubated for 30 mins followed by forskolin addition measured after 6 hrs by Bright-Glo Luciferase Assay. The format is cell-based. Particulars: time 6.5 hrs.

Test [19] concerns Hydroxycarboxylic acid receptor 1 (Homo sapiens), Q9BXC0 [H261F]. Kind of test: Agonist activity at CRE-luc-fused HCA1 H261F mutant (unknown origin) expressed in HEK293 cells co-expressing XtremeGENE HP DNA assessed as inhibition of cAMP production preincubated for 30 mins followed by forskolin addition measured after 6 hrs by Bright-Glo Luciferase Assay. Format: cell-based. Particulars: time 6.5 hrs.

The test system of test [20] is Hydroxycarboxylic acid receptor 1 (Homo sapiens), Q9BXC0 [Y268A]. As to the kind of experiment: Agonist activity at CRE-luc-fused HCA1 Y268A mutant (unknown origin) expressed in HEK293 cells co-expressing XtremeGENE HP DNA assessed as inhibition of cAMP production preincubated for 30 mins followed by forskolin addition measured after 6 hrs by Bright-Glo Luciferase Assay. Format: cell-based. Particulars: time 6.5 hrs.
Sequence of Hydroxycarboxylic acid receptor 1 (Homo sapiens), Q9BXC0 [Y268A] (Q9BXC0 whole entry Y268A, the tested form may be a part): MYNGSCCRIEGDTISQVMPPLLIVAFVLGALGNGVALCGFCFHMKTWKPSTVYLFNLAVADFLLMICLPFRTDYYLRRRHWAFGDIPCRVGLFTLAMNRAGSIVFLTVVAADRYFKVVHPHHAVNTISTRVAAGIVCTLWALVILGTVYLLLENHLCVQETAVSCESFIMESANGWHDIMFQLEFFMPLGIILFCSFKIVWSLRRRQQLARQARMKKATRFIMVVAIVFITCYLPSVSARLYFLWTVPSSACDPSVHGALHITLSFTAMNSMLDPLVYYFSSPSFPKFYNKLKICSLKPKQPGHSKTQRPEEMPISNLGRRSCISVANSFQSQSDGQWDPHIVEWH

T1 sequence (Q9BXC0 whole entry, the tested form may be a part): as the sequence (Q9BXC0 whole entry Y268A, the tested form may be a part) above, with A268Y counted along it
Sequence of Hydroxycarboxylic acid receptor 1 (Homo sapiens), Q9BXC0 [R99A] (Q9BXC0 whole entry R79A, the tested form may be a part): as the sequence (Q9BXC0 whole entry Y268A, the tested form may be a part) above, with R79A, A268Y counted along it
Sequence of Hydroxycarboxylic acid receptor 1 (Homo sapiens), Q9BXC0 [E166I] (Q9BXC0 whole entry E166I, the tested form may be a part): as the sequence (Q9BXC0 whole entry Y268A, the tested form may be a part) above, with E166I, A268Y counted along it
Sequence of Hydroxycarboxylic acid receptor 1 (Homo sapiens), Q9BXC0 [C7A] (Q9BXC0 whole entry C7A, the tested form may be a part): as the sequence (Q9BXC0 whole entry Y268A, the tested form may be a part) above, with C7A, A268Y counted along it
Sequence of Hydroxycarboxylic acid receptor 1 (Homo sapiens), Q9BXC0 [C88A] (Q9BXC0 whole entry C88A, the tested form may be a part): as the sequence (Q9BXC0 whole entry Y268A, the tested form may be a part) above, with C88A, A268Y counted along it
Sequence of Hydroxycarboxylic acid receptor 1 (Homo sapiens), Q9BXC0 [R71A] (Q9BXC0 whole entry R71A, the tested form may be a part): as the sequence (Q9BXC0 whole entry Y268A, the tested form may be a part) above, with R71A, A268Y counted along it
Sequence of Hydroxycarboxylic acid receptor 1 (Homo sapiens), Q9BXC0 [Y74A] (Q9BXC0 whole entry Y74A, the tested form may be a part): as the sequence (Q9BXC0 whole entry Y268A, the tested form may be a part) above, with Y74A, A268Y counted along it
Sequence of Hydroxycarboxylic acid receptor 1 (Homo sapiens), Q9BXC0 [H261A] (Q9BXC0 whole entry H261A, the tested form may be a part): as the sequence (Q9BXC0 whole entry Y268A, the tested form may be a part) above, with H261A, A268Y counted along it
Sequence of Hydroxycarboxylic acid receptor 1 (Homo sapiens), Q9BXC0 [E166A] (Q9BXC0 whole entry E166A, the tested form may be a part): as the sequence (Q9BXC0 whole entry Y268A, the tested form may be a part) above, with E166A, A268Y counted along it
Sequence of Hydroxycarboxylic acid receptor 1 (Homo sapiens), Q9BXC0 [H261F] (Q9BXC0 whole entry H261F, the tested form may be a part): as the sequence (Q9BXC0 whole entry Y268A, the tested form may be a part) above, with H261F, A268Y counted along it
Sequence of Hydroxycarboxylic acid receptor 1 (Homo sapiens), Q9BXC0 [C6A] (Q9BXC0 whole entry C6A, the tested form may be a part): as the sequence (Q9BXC0 whole entry Y268A, the tested form may be a part) above, with C6A, A268Y counted along it
Sequence of Hydroxycarboxylic acid receptor 1 (Homo sapiens), Q9BXC0 [R240A] (Q9BXC0 whole entry R240A, the tested form may be a part): as the sequence (Q9BXC0 whole entry Y268A, the tested form may be a part) above, with R240A, A268Y counted along it
Sequence of Hydroxycarboxylic acid receptor 1 (Homo sapiens), Q9BXC0 [Y75A] (Q9BXC0 whole entry Y75A, the tested form may be a part): as the sequence (Q9BXC0 whole entry Y268A, the tested form may be a part) above, with Y75A, A268Y counted along it

What is called EC50 is the concentration giving half of the maximal effect. Compound `O=C(O)c1cc(O)cc(Cl)c1` gave an EC50 in test [1] of about 16 µM.
The same measure, in the same setting: with `CC1CCC(C(=O)Nc2nc(-c3cccs3)c(CC(=O)N3CCN(C)CC3)s2)CC1` (stereo not given) the figure was about 0.05 µM.
`CC(C)(Cc1nc(-c2ccc(O)cn2)no1)C(=O)NC1=C(C(=O)O)CCCC1`: the outcome in the test on HEK293 [2] and with HEK293 [3] was inactive. In the test on HEK293 [4], the result was Active.
On to `CCCCCC(O)CC(=O)O` (stereo not given), for which the result with HEK293 [2] and in the test on HEK293 [6] was inactive. For the same compound, in the test on HEK293 [5], the result was Active.
As to `O=C(O)c1cc(O)cc(O)c1` [3,5-DIHYDROXYBENZOIC ACID], the result in test [7] was Active. The result in [8], in test [9], in [10], in test [11], in test [12] and in test [13] was inactive. The result in [14], in test [15], in [16], in test [17], in [18] and in [19] was inactive. Moreover, the outcome in test [20] was inactive. The EC50 in test [1] was about 150 µM.
Take `O=C(O)c1cccc(O)c1` [3-HYDROXYBENZOIC ACID]: the EC50 in test [1] was about 184 µM.
The same measure, in the same setting: for `CC(O)C(=O)O` (stereo not given) [LACTIC ACID] the value was 1000 µM.
